According to patent US10550100B2, “5-[3-[piperzin-1-yl]-3-oxo-propyl]-imidazolidine-2,4-dione derivatives as ADAMTS 4 and 5 inhibitors for treating E.G. osteoarthritis” (GALAPAGOS NV, priority 2016, dated 2020):
pIC50: −log10 of the molar value.

Legend:
Type in all cases: biochemical
human ADAMTS-5 = human ADAMTS-5 (Homo sapiens (Human), UniProt Q9UNA0); test: hADAMTS-5 TBIS-1 cleavage assay, Protocol 3; settings: Protocol 3, TBIS-1 substrate, 90 min at 37° C.; read-out: hADAMTS-5 potency IC50
Method: The reaction is initiated by adding to the assay plate TBIS-1 (10 μL, 4.5 μM, Anaspec) in the same buffer.
Finally, the fluorescence is read on the Envision (Perkin Elmer) after an incubation of 90 min at 37° C. (Excitation 485 nm, emission 530).

human ADAMTS6 = human ADAMTS6 (Homo sapiens (Human), UniProt Q9UKP5); test: hADAMTS-6 520 MMP FRET substrate XII cleavage assay; settings: 37° C. for 2 h, read-out: hADAMTS-6 potency IC50
Text: The IC50 value for test compounds can be determined in a fluorescent based protease assay.
The basis for the assay is the cleavage of the substrate 520 MMP FRET substrate XII by human ADAMTS6.
The substrate contains sequence Arg-Pro-Lys-Pro-Tyr-Ala-Nva-Trp-Met-Lys (SEQ ID NO: 7) with attached a fluorescent probe and a quencher. Without ADAMTS6, the emission of the probe is quenched. If the substrate is cleaved by ADAMTS6, the emission of the probe is not quenched anymore. Inhibition of ADAMTS6 activity, will result in a decrease of the signal.
To perform the assay, 4 μL of a dilution series of compound in water, starting from 20 μM highest concentration, 1/5 dilution, is added to the wells. 2 ng ADAMTS6 enzyme is diluted in 25 mM Tris pH8.0, 0.05% CHAPS, 2.5 mM CaCl2 in a total volume of 26 μL (final concentration 0.73 nM). The reaction is started by addition of 10 μL of 1 μM 520 MMP FRET Substrate XII (final concentration, diluted in same buffer as described above) and the mixture is incubated at 37° C. for 2 h. […] After this incubation, cleavage of the substrate is measured using the Envision (Perkin Elmer, exc485/em530).

human TACE = human TACE (Homo sapiens (Human), UniProt P78536); test: hTACE 5FAM-[…]-5TAMRA cleavage assay; settings: 5FAM-[…]-5TAMRA, 75 min at room temperature; read-out: hTACE potency IC50
Method: Finally, the fluorescence is read on the Envision (Perkin Elmer) after an incubation of 75 min at room temperature (Excitation 485 nm, Emission 530).

human ADAMTS-5, sequence (Q9UNA0 262-930): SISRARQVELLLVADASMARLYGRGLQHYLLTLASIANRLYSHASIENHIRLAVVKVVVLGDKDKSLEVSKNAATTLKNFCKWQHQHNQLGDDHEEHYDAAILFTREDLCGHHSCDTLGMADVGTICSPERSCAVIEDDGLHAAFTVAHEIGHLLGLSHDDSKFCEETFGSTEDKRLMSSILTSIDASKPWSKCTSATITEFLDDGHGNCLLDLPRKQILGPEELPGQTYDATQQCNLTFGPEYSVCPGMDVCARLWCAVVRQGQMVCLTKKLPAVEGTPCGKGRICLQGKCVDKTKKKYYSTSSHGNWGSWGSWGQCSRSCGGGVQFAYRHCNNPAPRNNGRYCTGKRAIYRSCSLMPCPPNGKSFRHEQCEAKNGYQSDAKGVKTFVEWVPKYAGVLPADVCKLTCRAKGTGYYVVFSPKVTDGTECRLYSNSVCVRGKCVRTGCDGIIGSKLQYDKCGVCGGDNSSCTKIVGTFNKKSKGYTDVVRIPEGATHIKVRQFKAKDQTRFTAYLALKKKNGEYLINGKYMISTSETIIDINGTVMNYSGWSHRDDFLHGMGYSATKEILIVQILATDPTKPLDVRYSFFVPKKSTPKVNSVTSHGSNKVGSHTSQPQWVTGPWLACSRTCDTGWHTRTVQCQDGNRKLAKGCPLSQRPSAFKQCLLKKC
human TACE, sequence (P78536 215-671): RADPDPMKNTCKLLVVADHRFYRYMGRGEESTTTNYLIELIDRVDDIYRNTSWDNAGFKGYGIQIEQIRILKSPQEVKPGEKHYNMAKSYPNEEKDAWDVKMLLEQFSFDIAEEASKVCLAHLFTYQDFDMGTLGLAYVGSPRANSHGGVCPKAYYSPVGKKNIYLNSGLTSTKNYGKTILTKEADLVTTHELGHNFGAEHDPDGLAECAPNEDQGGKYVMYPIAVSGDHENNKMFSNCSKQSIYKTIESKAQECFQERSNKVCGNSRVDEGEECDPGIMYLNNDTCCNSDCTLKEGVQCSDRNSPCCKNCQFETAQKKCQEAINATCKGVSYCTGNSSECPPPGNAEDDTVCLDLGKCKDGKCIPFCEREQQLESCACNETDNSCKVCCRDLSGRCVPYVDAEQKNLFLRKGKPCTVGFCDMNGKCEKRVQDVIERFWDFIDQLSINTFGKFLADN
human ADAMTS6, sequence (Q9UKP5 other isoform, or with tags, fused parts or gaps): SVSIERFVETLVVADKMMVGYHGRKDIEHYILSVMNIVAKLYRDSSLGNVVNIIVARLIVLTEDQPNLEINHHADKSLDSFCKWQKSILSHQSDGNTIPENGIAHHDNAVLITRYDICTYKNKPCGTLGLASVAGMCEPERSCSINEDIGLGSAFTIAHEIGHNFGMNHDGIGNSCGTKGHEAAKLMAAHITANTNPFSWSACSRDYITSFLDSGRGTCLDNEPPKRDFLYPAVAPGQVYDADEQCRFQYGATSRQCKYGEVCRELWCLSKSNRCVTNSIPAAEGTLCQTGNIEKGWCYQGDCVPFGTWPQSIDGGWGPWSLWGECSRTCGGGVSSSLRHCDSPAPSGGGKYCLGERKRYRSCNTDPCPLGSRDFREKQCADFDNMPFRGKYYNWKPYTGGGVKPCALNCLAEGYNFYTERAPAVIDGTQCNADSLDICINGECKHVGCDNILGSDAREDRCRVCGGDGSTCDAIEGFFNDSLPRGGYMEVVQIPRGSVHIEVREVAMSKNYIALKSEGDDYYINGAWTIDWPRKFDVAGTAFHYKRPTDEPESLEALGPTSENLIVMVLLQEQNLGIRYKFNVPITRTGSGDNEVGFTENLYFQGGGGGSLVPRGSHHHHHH

| SMILES | pIC50 (human ADAMTS-5) | pIC50 (human ADAMTS6) | pIC50 (human TACE) |
| --- | --- | --- | --- |
| COc1ccc(C2CCN(C(=O)CC[C@H]3NC(=O)NC3=O)CC2)cc1 [Cpd 30, (R)-5-(3-(4-(4-methoxyphenyl)piperidin-1-yl)-3-oxopropyl) imidazolidine-2,4-dione] | < 7.00 | < 7.00 | – |
| COc1ccc(C2CCN(C(=O)CCC3(C)NC(=O)NC3=O)CC2)cc1 (stereo not shown) [Cpd 31, 5-(3-(4-(4-methoxyphenyl)piperidin-1-yl)-3-oxopropyl)-5-methyl-imidazolidine-2,4-dione] | < 7.00 | < 7.00 | – |
| COc1ccc(OC)c(C2CCN(C(=O)CC[C@H]3NC(=O)NC3=O)CC2)c1 [Cpd 35, (R)-5-(3-(4-(2,5-dimethoxy-phenyl)piperidin-1-yl)-3-oxopropyl) imidazolidine-2,4-dione] | < 7.00 | < 7.00 | – |
| COc1ccc(OC)c(C2CCN(C(=O)CCC3(C)NC(=O)NC3=O)CC2)c1 (stereo not shown) [Cpd 39, 5-(3-(4-(2,5-dimethoxy-phenyl)piperidin-1-yl)-3-oxopropyl)-5-methyl-imidazolidine-2,4-dione] | < 7.00 | < 7.00 | – |
| Cc1cc(Cl)ccc1C1CCN(C(=O)CC[C@H]2NC(=O)NC2=O)CC1 [Cpd 59, (R)-5-(3-(4-(4-chloro-2-methylphenyl)piperidin-1-yl)-3-oxopropyl) imidazolidine-2,4-dione] | – | < 7.00 | – |
| COc1cc(C2CCN(C(=O)CC[C@H]3NC(=O)NC3=O)CC2)cc(N(C)C)c1Cl [Cpd 91] | – | 7.30 to 7.60 | – |
| C[C@]1(CCC(=O)N2CCC(c3ccc(Cl)c(C(F)(F)F)c3)CC2)NC(=O)NC1=O [Cpd 94, (5R)-5-[3-[4-[4-chloro-3-(trifluoromethyl)phenyl]-1-piperidyl]-3-oxo-propyl]-5-methyl-imidazolidine-2,4-dione] | – | 7.30 to 7.60 | – |

Results, then the molecule that gave them:

| pIC50 (human ADAMTS-5) | pIC50 (human ADAMTS6) | pIC50 (human TACE) | SMILES |
| --- | --- | --- | --- |
| – | 7.60 to 12.00 | – | COc1cc(C2CCN(C(=O)CCC3(C)NC(=O)NC3=O)CC2)c(C)cc1Cl (stereo not shown) [Cpd 37, 5-(3-(4-(4-chloro-5-methoxy-2-methylphenyl)piperidin-1-yl)-3-oxopropyl)-5-methyl-imidazolidine-2,4-dione] |
| – | 7.60 to 12.00 | – | COc1cc(Cl)c(Cl)cc1C1CCN(C(=O)CCC2(C)NC(=O)NC2=O)CC1 (stereo not shown) [Cpd 62, 5-(3-(4-(4,5-dichloro-2-methoxyphenyl)piperidin-1-yl)-3-oxopropyl)-5-methyl-imidazolidine-2,4-dione] |
| – | 7.60 to 12.00 | 7.00 to 7.30 | COc1cc(C2CCN(C(=O)CC[C@@]3(C)NC(=O)NC3=O)CC2)cc(Cl)c1Cl [Cpd 68, (R)-5-(3-(4-(3,4-dichloro-5-methoxyphenyl)piperidin-1-yl)-3-oxopropyl)-5-methylimidazolidine-2,4-dione] |
| – | 7.60 to 12.00 | 7.00 to 7.30 | COc1cc(C2CCN(C(=O)CC[C@H]3NC(=O)NC3=O)CC2)cc(Cl)c1Cl [Cpd 69, (R)-5-(3-(4-(3,4-dichloro-5-methoxyphenyl)piperidin-1-yl)-3-oxopropyl) imidazolidine-2,4-dione] |
| – | 7.60 to 12.00 | 7.00 to 7.30 | COc1cc(C2CCN(C(=O)CC[C@H]3NC(=O)NC3=O)CC2)cc(OC)c1F [Cpd 82, (5R)-5-[3-[4-(4-fluoro-3,5-dimethoxy-phenyl)-1-piperidyl]-3-oxo-propyl] imidazolidine-2,4-dione] |
| – | 7.30 to 7.60 | – | COc1cc(C2CCN(C(=O)CC[C@@]3(C)NC(=O)NC3=O)CC2)c(C)cc1F [Cpd 83, (5R)-5-[3-[4-(4-fluoro-5-methoxy-2-methyl-phenyl)-1-piperidyl]-3-oxo-propyl]-5-methyl-imidazolidine-2,4-dione] |
| – | 7.60 to 12.00 | – | COc1cc(Cl)c(Cl)cc1C1CCN(C(=O)CCC2(c3cccc(C)n3)NC(=O)NC2=O)CC1 (stereo not shown) [Cpd 92, 5-[3-[4-(4,5-dichloro-2-methoxy-phenyl)-1-piperidyl]-3-oxo-propyl]-5-(6-methyl-2-pyridyl) imidazolidine-2,4-dione] |
| – | 7.60 to 12.00 | – | Cc1cc(C2CCN(C(=O)CC[C@@]3(C)NC(=O)NC3=O)CC2)ccc1Cl [Cpd 95, (5R)-5-[3-[4-(4-chloro-3-methyl-phenyl)-1-piperidyl]-3-oxo-propyl]-5-methyl-imidazolidine-2,4-dione] |
